Assay: T3 promoter assay cell test (luciferase reporter under a thyroid hormone-regulated promoter)
Format: cell-based
Conditions: Homo sapiens; HepG2 luciferase reporter; costimulator retinolic acid; incubation 48 or 72 hours; four replicates
Protocol: The efficacy of the compounds according to the invention can be tested, for example, in vitro by the T3 promoter assay cell test described below:
The test is carried out using a stably transfected, human HepG2 hepatocarcinoma cell which expresses a luciferase gene under the control of a thyroid hormone-regulated promoter. The vector used for the transfection carries a minimal thymidine kinase promoter ahead of the luciferase gene having a thyroid hormone-responsive element (TRE) which consists of two inverted palindromes of 12 bp each and one 8 bp spacer.
For the test, the cell cultures are inoculated into 96 well plates in Eagle's Minimal Essential Medium with the following additives: glutamine, tricine [N-(tris-(hydroxymethyl)-methyl)-glycine], sodium pyruvate, non-essential amino acids (L-Ala, L-Asn, L-Asp, L-Pro, L-Ser, L-Glu, Gly), insulin, selenium and transferrin. The cultures are grown at 37° C. and under a 10% CO2 atmosphere for 48 hours. Serial dilutions of test substance or reference compound (T3, T4) and costimulator retinolic acid are then added to the test cultures and these are incubated for a further 48 or 72 hours as beforehand. Each substance concentration is tested in four replicates. For the determination of the luciferase induced by T3 or other substances, the cells are then lysed by addition of a Triton- and […] buffer (Promega) and immediately measured luminometrically. The EC50 values of each compound are calculated.

Compound | EC50 [nM]
CCOC(=O)C(=O)Nc1cc(C)c(Oc2ccc3[nH]nc(C(C)C)c3c2)c(C)c1 [Example 9, Ethyl ({3,5-dimethyl-4-[(3-isopropyl-1H-indazol-5-yl)oxy]phenyl}amino)(oxo)-acetate] | 190
CCCc1n[nH]c2ccc(Oc3c(C)cc(N)cc3C)cc12 [Example 4, 5-(4-Amino-2,6-dimethylphenoxy)-3-propyl-1H-indazole] | 115
CCCCCc1n[nH]c2ccc(Oc3c(C)cc(NC(=O)CC(=O)OC)cc3C)cc12 [Example 18, Methyl-({3,5-dimethyl-4-[(3-pentyl-1H-indazol-5-yl)oxy]phenyl}amino)-3-(oxo)-propionate] | 18

These reach a lower EC50. Values come first.

EC50 [nM] | Compound
13 | CCCCCc1n[nH]c2ccc(Oc3c(C)cc(NC(=O)C(=O)O)cc3C)cc12 [Example 11a, ({3,5-dimethyl-4-[(3-pentyl-1H-indazol-5-yl)oxy]phenyl}amino)(oxo)acetic acid]
10 | CCCCCc1n[nH]c2ccc(Oc3c(C)cc(NCC(=O)OCC)cc3C)cc12 [Example 16, Ethyl ({3,5-dimethyl-4-[(3-pentyl-1H-indazol-5-yl)oxy]phenyl}amino)acetate]
10 | CCCCCc1n[nH]c2ccc(Oc3c(C)cc(NC(=O)C(=O)OCC)cc3C)cc12 [Example 11, Ethyl ({3,5-dimethyl-4-[(3-pentyl-1H-indazol-5-yl)oxy]phenyl}amino)(oxo)acetate]

— patent US6608049B2, “Indazoles” (Bayer Aktiengesellschaft, priority 2000, dated 2003)
